{"source": "patent US11827690B2", "about": "“ApoC-II mimetic peptides” (THE UNITED STATES OF AMERICA, as represented by the …, priority 2017, dated 2023)", "key": {"[1]": {"molecular_target": "T1, LPL inhibited by apoC-III (Bos taurus, UniProt P11151)", "T1 sequence (P11151 29-478)": "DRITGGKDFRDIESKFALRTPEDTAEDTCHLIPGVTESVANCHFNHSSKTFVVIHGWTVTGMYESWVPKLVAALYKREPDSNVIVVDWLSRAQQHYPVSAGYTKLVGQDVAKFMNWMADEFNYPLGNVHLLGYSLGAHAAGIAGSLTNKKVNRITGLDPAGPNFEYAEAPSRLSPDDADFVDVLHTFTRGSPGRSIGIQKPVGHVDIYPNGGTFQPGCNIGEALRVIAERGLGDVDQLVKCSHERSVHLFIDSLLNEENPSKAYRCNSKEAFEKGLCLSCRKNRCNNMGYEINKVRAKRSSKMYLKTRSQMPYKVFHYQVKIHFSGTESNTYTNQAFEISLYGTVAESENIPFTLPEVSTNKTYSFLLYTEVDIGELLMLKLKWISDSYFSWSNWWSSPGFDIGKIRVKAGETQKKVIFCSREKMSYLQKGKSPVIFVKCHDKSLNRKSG", "experiment": "LPL assay using human apoC-II deficient plasma as substrate with recombinant apoC-III", "type": "biochemical", "settings": "25 μM apoC-III, FIG. 50", "method": "LPL activity assay: 10 μL of Intralipid, human plasma sample, or mouse plasma sample was added in each well using repeater pipette. 10 μL (or 15 μL in the wells with no LPL control) of PBS and 10 μL of 1% BSA was added in each well using repeater pipette. 10 μL of peptides were added to corresponding wells in vertical triplicates (lowest concentration is on a left, highest is on the right). The plate was spun down at 1000 RPM for 10 seconds to mix and to remove the solutions from the wall of each well. The plate was put on ice and 5 μL of LPL was added using repeater pipette. The plate was spun down again at 1000 RPM for 10 seconds. The plate was covered and put back on ice for an incubation of 30 min. The plate was then moved to 37° C. and incubated for 1 hour.\nFree fatty acids (NEFA) assay: 45 μL of 5 nmoL standard and 0 nmoL control (0.2% BSA) were added to corresponding wells. 225 μL of reagent A was added in each well using the reagent tray and 12-channel pipette. The plate was incubated for 10 min before 75 μL of reagent B was added to each well using the reagent tray and 12-channel pipette. The plate was not covered due to the high volume. The absorbance at 550 nm and 660 nm was measured.\nLPL assay was performed using Intralipid, high TG human plasma (1:50 dilution), or apoC-III transgenic mouse plasma (1:50 dilution). When Intralipid was used as a substrate, 25 or 50 μM recombinant ApoC-III was added as an inhibitor. When the high TG human plasma was used as a substrate, 25 or 50 μM recombinant ApoC-III was added as an inhibitor with or without pre-incubation at 37° C. for 1 hour. An apoC-II mimetic peptide was added at various concentrations."}, "apoC-III transgenic mice [2]": {"tested_on": "apoC-III transgenic mice", "experiment": "plasma TG and apoC-III of apoC-III transgenic mice after peptide injection", "type": "in vivo", "method": "(§1) C57Bl/6 mice (wild-type), apoC-II knockout (apoC-II KO) mice, and apoC-III transgenic mice were used for in vivo study. The C57Bl/6 mice (wild-type) were purchased from Taconic Biosciences Inc. The apoC-II KO mice were created as described in Sakurai et al., J Pharmacol Exp Ther 356:341-353, 2016. The apoC-III transgenic mice were generated by overexpressing human apoC-III in C57Bl/6 mice. See Qu et al., J. Lipid Res. 48:1476-1487, 2007.\n(§2) Mice were fasted overnight (approximately 12 hours) before the study and 6 hours during the study, the next day. The apoC-II mimetic peptides were synthetically produced and free of biological contamination (not available as FDA approved compounds/treatment). Peptides were produced and used in sterile conditions and filtered by 0.2 nm filter before injections in a single dose 1-10 μmol/kg body weight (B. W.) administered either subcutaneous injection (S.Q. or S.C.), intraperitoneal injection (I.P.) or intravenous injection (I.V.) (in a sterile, pharmaceutical grade PBS solution at a volume ≤200 μL) as described in Sakurai et al., J Pharmacol Exp Ther 356:341-353, 2016."}, "bovine LPL": {"molecular_target": "T2, bovine LPL (Bos taurus, UniProt P11151)", "T2 sequence (P11151 29-478)": "T1 sequence (P11151 29-478)", "experiment": "in vitro LPL assay using apoC-II deficient patient sera as substrate", "type": "biochemical", "in_short": "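Bovine LPL incubated with peptide and substrate (3 mg/dL TG Intralipid or 1:100-diluted apoC-II-deficient human serum) in PBS with BSA, 30 min on ice then 1 h at 37° C. Released free fatty acids quantified by colorimetric NEFA assay (absorbance 550 and 660 nm) against an oleic acid standard.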"}, "apoC-III transgenic mice [3]": {"tested_on": "apoC-III transgenic mice", "experiment": "serum TG of apoC-III transgenic mice after Intralipid injection", "type": "in vivo", "settings": "peptide IP 1 hour after Intralipid, 5 and 10 μmole/kg, FIG. 39", "method": "as §1\nas §2, with “2016. […]” for “2016.”"}, "[4]": {"settings": "ELISA, 5 μmole/kg, Day 1 and Day 5, 3 h after injection"}}, "data": [{"sequence": "DYLKEVFEKLRDLYEKFTPAVSTYTGIFTDQVLSVLKGEE [Delta6PV]", "values": [{"measurement": "effect on inhibition of LPL by apoC-III", "setting": "[1]", "result": "overcame the inhibitory effect of apoC-III and facilitated lipolysis"}, {"measurement": "apoC-III level on HDL", "setting": "apoC-III transgenic mice [2]; [4]", "result": "decreased"}, {"measurement": "apoC-III level on VLDL", "setting": "apoC-III transgenic mice [2]; [4]", "result": "decreased"}, {"measurement": "plasma TG compared to control", "setting": "apoC-III transgenic mice [2]; repeat IP injection at 24 h intervals for 5 days, 5 μmole/kg, 1 h, 3 h, 6 h after injection on Day 1 and Day 5", "result": "lower plasma TG"}, {"measurement": "plasma TG", "setting": "apoC-III transgenic mice [2]; single intraperitoneal injection, 1, 5 and 10 μmole/kg, FIG. 38B", "result": "rapid and marked reduction of plasma TG"}, {"measurement": "time of maximum decrease of plasma TG", "setting": "apoC-III transgenic mice [2]; single intraperitoneal injection, after the injection", "result": "about 6 hours"}, {"measurement": "LPL activation compared with full length apoC-II protein", "setting": "bovine LPL; 10 pM to 10 μM, FIG. 51", "result": "activated LPL in vitro more efficiently than the full length apoC-II protein"}, {"measurement": "LPL activation / TG hydrolysis", "setting": "bovine LPL; FIG. 52", "result": "activated LPL in vitro"}, {"measurement": "serum TG increase after Intralipid injection", "setting": "apoC-III transgenic mice [3]", "result": "the TG increase was significantly reduced"}]}]}
